Earlier results, collected in US20100152180A1, “4-oxo-4,5-dihydropyrrolo[1,2-A)quinoxaline derivatives as inhibitors of poly(ADP-ribose) polymerase (PARP)” (priority 2006, published 2010).

System: ischemia and reperfusion of the heart or skeletal muscle
Details: rabbits

Compound	reduction in infarct size (single injection 1 mg/kg)	reduction in infarct size in the heart (single injection 10 mg/kg, one minute before occlusion or one minute before reperfusion)
Oc1cccc2c(O)nccc12 [1,5-dihydroxyisoquinoline]	38-48%	
NC(=O)c1cccc(N)c1 [3-amino-benzamide]		32-42%
